The values that follow come from patent publication US20210284621A1 (priority 2018, published 2021).

The target in assay [1] is T1, CB1 receptor (Homo sapiens, UniProt P21554). The assay is described as follows: cAMP Assay #2: Hit Hunter cAMP assay, Gi-coupled agonist activity, CB1. The arrangement: host or cells: PathHunter cell lines. Type of assay: cell-based. (Cyclic AMP is a second messenger, typically raised through Gs and lowered through Gi signalling.)
Assay [2] addresses T1, CB1 receptor. The experiment in a line: cell-based. Further details: host or cells: PathHunter cell lines.
Assay [3] has as its target T1, CB1 receptor. The assay is described as follows: cAMP Assay #1: CB1 adenylylcyclase assay in CHO cells. In kind it is cell-based. Further details: expressed in transfected cells; host or cells: CHO cells. The gist of the method: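 CHO cells expressing human recombinant CB1 incubated with compound 20 min at 37 °C; agonism read as change in cAMP production. EC50 from non-linear Hill-equation fit of mean replicate concentration-response curves.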

Another assay concerns the target CB2 receptor (Homo sapiens, UniProt P34972). The assay is described as follows: cAMP Assay #1: CB2 adenylylcyclase assay in CHO cells. Type of assay: cell-based. Further details: expressed in transfected cells; host or cells: CHO cells. The gist of the method: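 Agonism measured as cAMP production in CHO cells expressing human recombinant CB2, incubated with compound for 10 min at 37 °C. EC50 obtained by Hill-equation non-linear regression of mean replicate concentration-response data.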

The target of assay [4] is T1, CB1 receptor. The assay is described as follows: CB1 competitive radioligand binding assay ([3H] SR141716A). The arrangement: expressed in transfected cells; host or cells: Chem-1 cells. To be noted: for inhibition at 0.5 µM: 0.5 μM compound, 2.0 nM [3H] SR141716A, 90 min 37° C. The gist of the method: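 Chem-1 cells expressing human recombinant CB1 incubated 90 min at 37° C with 2.0 nM [3H]SR141716A and compound at 0.5 μM (1% DMSO) in HEPES pH 7.4 buffer with MgCl2, CaCl2, 0.2% BSA. Read-out is % inhibition of radioligand binding.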

The mark [5] stands for this setting: Hit Hunter cAMP, 20 μM forskolin, control ligand CP55,940, read-out: CB1, EC50.
[6] abbreviates: PathHunter agonist mode, read-out: CB1 Activity (β-Arrestin).
Setting [7] is: CHO cells, 20 min 37° C., relative to 10 nM CP 55940, read-out: CB1 Activity EC50 (cAMP).
Setting [8] is: CHO cells, 10 min 37° C., relative to 100 nM WIN 55212-2, read-out: CB2 Activity EC50 (cAMP).
The mark [9] stands for this setting: Table 2, read-out: CB1 Binding Ki.

Read-outs that look alike come from different tables or passages of the source. Some results are limits rather than exact numbers.

T1 sequence (P21554 whole entry): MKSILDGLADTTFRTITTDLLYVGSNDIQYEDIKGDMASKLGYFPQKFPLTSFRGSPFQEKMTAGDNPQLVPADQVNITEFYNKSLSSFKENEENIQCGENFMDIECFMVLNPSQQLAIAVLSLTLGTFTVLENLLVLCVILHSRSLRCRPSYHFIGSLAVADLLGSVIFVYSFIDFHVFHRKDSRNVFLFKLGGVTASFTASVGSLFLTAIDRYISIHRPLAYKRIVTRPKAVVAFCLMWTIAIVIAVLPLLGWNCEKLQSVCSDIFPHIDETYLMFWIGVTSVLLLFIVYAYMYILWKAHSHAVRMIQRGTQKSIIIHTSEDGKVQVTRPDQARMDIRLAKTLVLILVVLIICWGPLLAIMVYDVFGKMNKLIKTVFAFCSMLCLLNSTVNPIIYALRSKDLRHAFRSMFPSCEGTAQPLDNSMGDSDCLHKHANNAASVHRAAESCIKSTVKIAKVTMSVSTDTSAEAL
Sequence of CB2 receptor (P34972 whole entry): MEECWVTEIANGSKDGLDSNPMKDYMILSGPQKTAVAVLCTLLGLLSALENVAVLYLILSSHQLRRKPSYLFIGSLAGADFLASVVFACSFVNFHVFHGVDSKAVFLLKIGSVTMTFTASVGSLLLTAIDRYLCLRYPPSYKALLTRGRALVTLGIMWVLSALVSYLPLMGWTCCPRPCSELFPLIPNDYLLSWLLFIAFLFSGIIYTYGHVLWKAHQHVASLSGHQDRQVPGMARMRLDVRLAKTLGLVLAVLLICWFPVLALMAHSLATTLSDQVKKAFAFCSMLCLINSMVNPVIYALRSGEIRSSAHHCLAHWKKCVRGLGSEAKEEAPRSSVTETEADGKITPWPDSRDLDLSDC

By inhibition is commonly meant the change of the read-out against control, counted positive when it falls. As a reminder, the Ki is the equilibrium dissociation constant of an inhibitor or competing ligand from its target. Turning to `CCCCCCC(C)(C)c1cc(O)c2c(c1)OC(C)(C)[C@@H]1CC=C(C(=O)NC(CO)CO)C[C@@H]21` [Compound 25, (6aR,10aR)-N-(1,3-Dihydroxypropan-2-yl)-1-hydroxy-6,6-dimethyl-3-(2-methyloctan-2-yl)-6a,7,10,10a-tetrahydro-6H-benzo[c]chromene-9-carboxamide], the EC50 on CB1 receptor [1] (setting [5]) is 360 nM; on CB1 receptor [2] (setting [6]) it was greater than 3000 nM; on CB1 receptor [3] (setting [7]), 16 nM; at CB2 receptor (setting [8]), 11 nM. Moreover, the inhibition at 0.5 µM at CB1 receptor [4] worked out at 29%. In addition, on CB1 receptor [4] (setting [9]), the Ki is 316 nM.
Consider `CCCCCCC(C)(C)c1cc(O)c2c(c1)OC(C)(C)[C@@H]1CC=C(C(=O)OC(C)C)C[C@@H]21` [Compound 29, Isopropyl (6aR,10aR)-1-hydroxy-6,6-dimethyl-3-(2-methyloctan-2-yl)-6a,7,10,10a-tetrahydro-6H-benzo[c]chromene-9-carboxylate], for which the EC50 at CB1 receptor [1] worked out at 9.6 nM; at CB1 receptor [2] (setting [6]) it was 47 nM; on CB1 receptor [3], 6.8 nM; at CB2 receptor it was 2.3 nM. Moreover, the inhibition at 0.5 µM at CB1 receptor [4] stood at 65%.
In the case of `CCCCCCC(C)(C)c1cc(O)c2c(c1)OC(C)(C)[C@@H]1CC=C(C(=O)NC[C@H](O)CO)C[C@@H]21` [Compound 56, (6aR,10aR)-N—((S)-2,3-Dihydroxypropyl)-1-hydroxy-6,6-dimethyl-3-(2-methyloctan-2-yl)-6a,7,10,10a-tetrahydro-6H-benzo[c]chromene-9-carboxamide], the EC50 at CB1 receptor [1] (setting [5]) is 250 nM; on CB1 receptor [2] (setting [6]), greater than 3000 nM; at CB1 receptor [3] (setting [7]), 3.6 nM; at CB2 receptor (setting [8]) it was 8.7 nM. For the same compound, on CB1 receptor [4] (setting [9]), the inhibition constant (Ki) was found to be 708 nM.
In the case of `CCCCCCC(C)(C)c1cc(O)c2c(c1)OC(C)(C)[C@@H]1CC=C(C(=O)NC[C@@H](O)CO)C[C@@H]21` [Compound 55, (6aR,10aR)-N—((R)-2,3-Dihydroxypropyl)-1-hydroxy-6,6-dimethyl-3-(2-methyloctan-2-yl)-6a,7,10,10a-tetrahydro-6H-benzo[c]chromene-9-carboxamide], the EC50 was 175 nM on CB1 receptor [1] (setting [5]), greater than 3000 nM on CB1 receptor [2] (setting [6]), 45 nM at CB1 receptor [3] (setting [7]) and 5.2 nM on CB2 receptor (setting [8]). Moreover, at CB1 receptor [4] (setting [9]), the Ki was found to be 619 nM.
For the compound `CCCCCCC(C)(C)c1cc(O)c2c(c1)OC(C)(C)[C@@H]1CC=C(C(=O)NC(C)(C)CCO)C[C@@H]21` [Compound 15, (6aR,10aR)-1-Hydroxy-N-(4-hydroxy-2-methylbutan-2-yl)-6,6-dimethyl-3-(2-methyloctan-2-yl)-6a,7,10,10a-tetrahydro-6H-benzo[c]chromene-9-carboxamide], the EC50 on CB1 receptor [1] (setting [5]) was 448 nM; at CB1 receptor [2] (setting [6]) it was greater than 3000 nM; at CB1 receptor [3] (setting [7]) it was 68 nM; at CB2 receptor (setting [8]), 7.5 nM. Besides, the inhibition at 0.5 µM at CB1 receptor [4] is 16%. In addition, the Ki on CB1 receptor [4] (setting [9]) worked out at 660 nM.
On to `CCCCCCC(C)(C)c1cc(O)c2c(c1)OC(C)(C)[C@@H]1CC=C(C(=O)O)C[C@@H]21` [AJA, (6aR,10aR)-1-hydroxy-6,6-dimethyl-3-(2-methyl-2-octanyl)-6a,7,10,10a-tetrahydro-6H-benzo[c]chromene-9-carboxylic acid, reference compound], for which the EC50 was determined as 77.1 nM at CB1 receptor [1], 1240 nM on CB1 receptor [2], 4.6 nM on CB1 receptor [3] and 21 nM at CB2 receptor. This compound showed an inhibition constant Ki on CB1 receptor [4] greater than 3000 nM. Moreover, the inhibition at 0.5 µM on CB1 receptor [4] is -1%.
